According to BigSolDB 2.1:

N#Cc1ccc2c(c1)OCO2
solubility (mole fraction)
Details | 278.15 K | 283.15 K | 288.15 K | 293.15 K | 298.15 K | 303.15 K | 308.15 K | 313.15 K | 318.15 K | 323.15 K
in 1,4-dioxane | – | – | 0.174 | 0.197 | 0.221 | 0.256 | 0.283 | 0.325 | 0.358 | 0.406
in 2-methoxyethanol | 0.0495 | 0.0606 | 0.0722 | 0.0849 | 0.101 | 0.119 | 0.137 | 0.16 | 0.192 | 0.221
in DMF | 0.172 | 0.193 | 0.212 | 0.239 | 0.264 | 0.293 | 0.32 | 0.36 | 0.39 | 0.433
in acetone | 0.101 | 0.118 | 0.136 | 0.158 | 0.181 | 0.207 | 0.237 | 0.269 | 0.307 | 0.349
in acetonitrile | 0.0673 | 0.0811 | 0.0999 | 0.12 | 0.143 | 0.173 | 0.203 | 0.243 | 0.283 | 0.33
in ethanol | 0.00686 | 0.00878 | 0.0111 | 0.0133 | 0.0166 | 0.0214 | 0.0266 | 0.034 | 0.0435 | 0.0548
in ethyl acetate | 0.0892 | 0.102 | 0.118 | 0.14 | 0.166 | 0.187 | 0.217 | 0.247 | 0.282 | 0.322
in isopropanol | 0.00473 | 0.00606 | 0.00772 | 0.00933 | 0.0127 | 0.0168 | 0.0202 | 0.0268 | 0.0338 | 0.0445
in isopropyl acetate | 0.0657 | 0.0784 | 0.0948 | 0.112 | 0.13 | 0.155 | 0.179 | 0.211 | 0.243 | 0.277
in methanol | 0.00823 | 0.0104 | 0.0123 | 0.0157 | 0.0192 | 0.024 | 0.031 | 0.0387 | 0.0495 | 0.0617
in methyl acetate | 0.102 | 0.118 | 0.137 | 0.16 | 0.184 | 0.21 | 0.24 | 0.274 | 0.31 | 0.353
in n-propanol | 0.00603 | 0.00758 | 0.00949 | 0.0122 | 0.0159 | 0.02 | 0.0255 | 0.0329 | 0.0433 | 0.0573
in n-propyl acetate | 0.0785 | 0.0928 | 0.113 | 0.128 | 0.149 | 0.176 | 0.204 | 0.235 | 0.27 | 0.31
